Experimental data published in patent US8778400B2, “Nanoparticle-stabilized capsule formulation for treatment of inflammation” (University of South Australia, priority 2008, dated 2014).
Values after ≈ are worked out from the molar mass of the structure shown.

Legend:
[1] = Solubility of celecoxib in Miglyol oil; type: physicochemical; conditions: oil or lipid
[2] = In vitro dissolution study of celecoxib formulations (USP type II paddle); type: physicochemical; conditions: phosphate buffer, 0.5% SLS, 37° C.
Description: The in vitro dissolution study was performed in 900 ml of phosphate buffer (0.05 M, pH 7.2) containing 0, 0.05, and 0.5% (w/v) SLS, using USP 23 type II apparatus (paddle method) operating at 75±0.02 rpm. Each sample, containing ˜2 mg of celecoxib (equivalent to the amount used in the in vivo studies), was added into the dissolution medium maintained at 37±0.5° C. Aliquots of 3 ml were drawn at fixed time points and replaced with an equal volume of fresh dissolution medium. The drawn samples were centrifuged at 9,400 g for 15 min to remove undissolved materials. The supernatant was subjected to another cycle of centrifugation under the same conditions. An aliquot of 100 μl was taken from the middle portion of each centrifuged samples before diluted 2-fold with acetonitrile. […] The amount of celecoxib dissolved in the dissolution media was analysed by HPLC as described previously.
SLS was employed as a wetting and solubilising agent in the dissolution medium for simulating the sink effect in the gastrointestinal tract. The dissolution profiles of celecoxib from various formulations are illustrated in FIG. 3. […] The influence of silica nanoparticle layers of different hydrophobicity in controlling drug release from homogenised liquid emulsions has been previously investigated (Simovic et al., 2007). Here, the dissolution profiles of celecoxib from spray-dried capsules formulated with hydrophilic silica were obtained. Two dissolution parameters were evaluated from the study employing sink conditions: the dissolution efficiency (% DE), and the time to achieve 50% of drug dissolution (t50%) (Table 2). % DE is the area under the dissolution curve between two specified time points expressed as a percentage of the area of the rectangle described by 100% dissolution in the same time intervals, which can be calculated using Eq. (II): […]

[3] = cited from earlier work
[4] = Equilibrium solubility of celecoxib in phosphate buffer containing SLS; type: physicochemical; conditions: for folds of saturation volume (FSV): 900 ml media for 2 mg celecoxib; for solubility thermodynamic at 48 h: phosphate buffer, 37 °C, thermodynamic from solid
Description: The mixture was shaken in a thermostated mixer chamber (37° C.) for 48 h. Equilibrated samples were centrifuged at 9,400 g for 15 min to remove undissolved materials. The amount of celecoxib dissolved was assayed using the HPLC method outlined above.

[5] = Distribution ratio of celecoxib in Miglyol oil and phosphate buffer; type: physicochemical; conditions: Miglyol oil and blank phosphate buffer
prostaglandin E2 = conditions: reported for humans, based on inhibitory effect on prostaglandin E2; cited from earlier work
[6] = after oral delivery; cited from earlier work
[7] = In vitro dissolution of indomethacin under sink conditions (USP paddle); type: physicochemical; conditions: 25 mg indomethacin, phosphate buffer pH 7.2, sink conditions
Description: DSC was performed using TA Instruments Q100 differential scanning calorimeter. A 15 mg sample was heated in an aluminium pan at a rate of […] over a temperature range of 25-200° C., under a flow of dry nitrogen gas (80 ml/min). Instrument calibration was undertaken using an indium standard. Powder XRD patterns were obtained using Philips (PW 1050/25) X-ray diffractometer with CoKα radiation (45 kV, 35 mA). The samples were scanned between 10-50° (2θ) at a rate of 1.0°/min. […] The HPLC system (Hewlett Packard 1100) consisted of a series […] auto sampler and G1314A variable UV detector (Shimadzu Corporation). Separation was achieved using a LiChrospher 100 RP-18 analytical column (5 μm, 100 mm×4.6 mm i.d.). […] All chromatographic separations were performed at room temperature at a flow rate of 1 mL/min. The column eluent was monitored at a wavelength of 320 nm. […] The dissolution tests under sink conditions were performed using a USP paddle system (Vankel) and kept at a controlled 37° C. […] The paddle was rotated at 50 rpm. Samples (5 mL) were taken every 15 minutes for 3 h. […] The samples were measured using HPLC. […] With the conventional assumption that the rate and extent of drug dissolution directly reflects the concentration of readily absorbable drug in the intestinal lumen, it is proposed that capsules have the potential to enhance the oral absorption process. […]

Row | solubility [1] [µg/mL] | t50% (time to achieve 50% of drug dissolution) [2] [min] | Dissolution efficiency (% DE) ([2]; t = 5 min) [%] | Dissolution efficiency (% DE) ([2]; t = 15 min) [%] | Dissolution efficiency (% DE) ([2]; t = 180 min) [%] | folds of saturation volume (FSV) ([4]; 0% SLS) | folds of saturation volume (FSV) ([4]; 0.05% SLS) | folds of saturation volume (FSV) ([4]; 0.25% SLS) | folds of saturation volume (FSV) ([4]; 0.5% SLS) | folds of saturation volume (FSV) ([4]; 1.0% SLS) | solubility thermodynamic at 48 h ([4]; pH 7.2, aqueous buffer, phosphate buffer pH 7.2, 0% SLS) [µg/mL] | solubility thermodynamic at 48 h ([4]; pH 7.2, aqueous with cosolvent or surfactant or cyclodextrin, 0.05% SLS) [µg/mL] | solubility thermodynamic at 48 h ([4]; pH 7.2, aqueous with cosolvent or surfactant or cyclodextrin, 0.25% SLS) [µg/mL] | solubility thermodynamic at 48 h ([4]; pH 7.2, aqueous with cosolvent or surfactant or cyclodextrin, 0.5% SLS) [µg/mL] | solubility thermodynamic at 48 h ([4]; pH 7.2, aqueous with cosolvent or surfactant or cyclodextrin, 1.0% SLS) [µg/mL] | distribution ratio (log D) [5] | t50% (time taken to achieve 50% of drug dissolution) [7] [min] | SMILES | log P [3] | minimum effective pain-relieving plasma concentration (prostaglandin E2) [ng/mL] | Tmax [6]
1 | ~10000 (≈ 26200 µM) | 144.8 | 8.9 ± 1 | 24.3 ± 5 | 48.9 ± 3 | 0.9 | 1.0 | 1.4 | 3.6 | 53.6 | 2.11 ± 0.01 (≈ 5.53 µM) | 2.33 ± 0.15 (≈ 6.11 µM) | 3.2 ± 0.16 (≈ 8.39 µM) | 8 ± 0.39 (≈ 21 µM) | 119 ± 29 (≈ 312 µM) | 3.7 |  | Cc1ccc(-c2cc(C(F)(F)F)nn2-c2ccc(S(N)(=O)=O)cc2)cc1 [celecoxib, 4-[5-(4-methylphenyl)-3-(trifluoromethyl)pyrazol-1-yl]benzenesulfonamide] | ≈ 3.5 | ~155 | approximately three
2 |  |  |  |  |  |  |  |  |  |  |  |  |  |  |  |  | 58.8 ± 0.5 | COc1ccc2c(c1)c(CC(=O)O)c(C)n2C(=O)c1ccc(Cl)cc1 [Indomethacin, 1-(4-chlorobenzoyl)-5-methoxy-2-methyl-1-H-indole-3-acetic acid] |  |  | 
